{"source": "patent US20120225471A1", "about": "“Method for producing a composite material” (priority 2011, published 2012)", "system": "zygomycetes, ascomycetes and bacteria/yeast", "experiment": "Cotton burr substrate disinfection, all contaminant types", "assay_type": "cell-based", "settings": "2.5 mL Tween 80 added to each PEO concentration; Fisher's Exact Test p=0.318, 0.499, 0.448 (zygomycetes, ascomycetes, bacteria/yeast)", "protocol": "Eight plant essential oils (cinnamon, clove, lemongrass, oregano, savory, spearmint, tea tree and thyme) were prepared with tap water in 600 ml Pyrex glass beakers in the following volumetric concentrations: 0.1, 0.5, 1.0, 1.5, 2.0% [v:v]. Twenty-four grams of a propriety cotton burr substrate was placed in a 25×25 cm square of tule mesh tied with a rubber band to make one bundle. Each concentration was tested in replicates of 5, by submersing each bundle in a beaker containing one of the plant essential (PEO) concentrations for three hours. Each beaker was placed under constant magnetic stirring at 300 rpm, to maintain the oil emulsion during the exposure period.\nThe bundle was then opened within a laminar flow hood and three pieces of cotton burrs were transferred to five Petri plates each of Potato Dextrose Agar (PDA) and Tryptic Soy Agar (TSA).\nThe submersion process was repeated for each PEO at the five concentrations over a period of three weeks. The number of ascomycete, zygomycete and bacteria/yeast colonies were recorded for each plate every 3 days for 15 days. […]\nExample 2 followed the same procedure as Example 1, but examined the efficacy of the five selected oil concentrations at the following exposure intervals: 30, 60, and 120 minutes. This analysis determined the minimum exposure time required for microbial inhibition on cotton burr substrate. […]", "data": [{"smiles": "CCCCCCCC/C=C\\CCCCCCCC(=O)OCCOCC(OCCO)C1OCC(OCCO)C1OCCO", "note": "(stereo not shown) [Tween 80]", "values": [{"measurement": "frequency of contamination on substrate treated with the surfactant versus non-treated substrate", "result": "no significant difference"}]}]}
